Experiments:
[1] = test system: osteoarthritic knees of rabbits; experiment: in vivo model of OA in rabbit, intra-articular administration; details: rabbit OA knee
[2] = test system: osteoarthritic knees of mice; experiment: in vivo model of OA in mice, intra-articular administration; details: mice OA knee
JNK = JNK phosphorylation in primary cultured chondrocytes stimulated with IL-1; type: cell-based
Description: (§1) To clarify the molecular mechanism, glucosamine-derived N-acetyl-phenylalanine has been studied in vitro, using primary cultured chondrocytes. The chondrocytes were stimulated with IL-1 in order to study the inflammatory pathway, controlled by the Activator Protein (AP)-1. […] The efficacy of interfering with the inflammatory pathway controlled by the transcription factor Nuclear Factor-κB (NF-κB) was then analyzed, which in turn is controlled by the IKK complex consisting of two IKKα and IKKβ kinases.

p38 = p38 phosphorylation in primary cultured chondrocytes stimulated with IL-1; type: cell-based
Description: as §1

c-jun = experiment: activation of c-jun (AP-1 component) in primary cultured chondrocytes stimulated with IL-1; type: cell-based
Description: as §1

IKKα [3] = target: T1, IKKα (Homo sapiens, UniProt O15111); experiment: translocation of IKKα kinase in the nucleus, primary cultured chondrocytes; type: cell-based
T1 sequence (O15111 1-745): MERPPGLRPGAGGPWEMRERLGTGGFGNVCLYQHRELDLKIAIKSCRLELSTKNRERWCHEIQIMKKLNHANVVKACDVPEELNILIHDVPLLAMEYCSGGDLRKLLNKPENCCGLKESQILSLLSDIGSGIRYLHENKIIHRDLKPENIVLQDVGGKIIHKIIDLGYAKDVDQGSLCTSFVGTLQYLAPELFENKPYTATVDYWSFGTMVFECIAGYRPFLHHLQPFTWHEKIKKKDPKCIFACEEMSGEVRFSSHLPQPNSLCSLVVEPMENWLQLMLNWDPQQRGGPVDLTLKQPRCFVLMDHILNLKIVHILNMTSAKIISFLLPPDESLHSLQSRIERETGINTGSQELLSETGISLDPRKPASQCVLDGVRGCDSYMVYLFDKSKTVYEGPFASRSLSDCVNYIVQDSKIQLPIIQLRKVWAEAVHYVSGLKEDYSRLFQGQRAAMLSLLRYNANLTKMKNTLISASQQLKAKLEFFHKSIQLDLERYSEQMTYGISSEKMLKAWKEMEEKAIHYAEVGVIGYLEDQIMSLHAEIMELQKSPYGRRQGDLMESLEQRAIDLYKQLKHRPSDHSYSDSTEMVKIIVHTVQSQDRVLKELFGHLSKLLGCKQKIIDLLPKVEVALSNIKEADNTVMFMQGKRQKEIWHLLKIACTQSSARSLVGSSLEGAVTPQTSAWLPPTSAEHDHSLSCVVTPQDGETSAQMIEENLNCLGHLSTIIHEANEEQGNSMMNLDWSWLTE
Description: as §1

IKKα [4] = target: T1, IKKα; experiment: kinase activity of IKKα; type: cell-based
Description: as §1

IKKβ = target: T2, IKKβ (Homo sapiens, UniProt O14920); experiment: kinase activity of IKKβ; type: cell-based
T2 sequence (O14920 1-756): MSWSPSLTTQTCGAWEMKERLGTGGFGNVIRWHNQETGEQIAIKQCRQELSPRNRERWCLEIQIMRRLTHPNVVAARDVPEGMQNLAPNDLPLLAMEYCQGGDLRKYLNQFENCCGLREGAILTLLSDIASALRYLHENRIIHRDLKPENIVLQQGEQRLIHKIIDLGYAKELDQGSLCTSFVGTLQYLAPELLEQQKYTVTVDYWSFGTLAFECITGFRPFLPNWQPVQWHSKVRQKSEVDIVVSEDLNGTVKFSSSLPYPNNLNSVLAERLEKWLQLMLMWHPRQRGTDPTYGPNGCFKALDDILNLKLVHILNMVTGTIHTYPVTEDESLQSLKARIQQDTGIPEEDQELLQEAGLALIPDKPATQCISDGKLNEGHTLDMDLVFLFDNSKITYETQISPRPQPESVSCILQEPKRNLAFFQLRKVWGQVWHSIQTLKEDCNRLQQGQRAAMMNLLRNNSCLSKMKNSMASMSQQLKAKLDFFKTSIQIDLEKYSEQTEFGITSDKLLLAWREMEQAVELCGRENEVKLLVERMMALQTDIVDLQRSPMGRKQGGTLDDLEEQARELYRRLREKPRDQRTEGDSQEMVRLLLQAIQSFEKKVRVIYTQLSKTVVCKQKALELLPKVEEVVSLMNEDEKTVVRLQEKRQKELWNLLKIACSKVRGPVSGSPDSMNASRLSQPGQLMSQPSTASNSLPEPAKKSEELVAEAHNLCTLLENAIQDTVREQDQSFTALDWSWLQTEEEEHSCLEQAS
Description: as §1

[5] = test system: human primary chondrocytes; experiment: human primary chondrocytes cultured in three dimensions as spheroids, ECM synthesis; type: cell-based; details: human chondrocyte spheroids, compound alone
Description: Finally, in order to understand which intracellular pathways are activated by said N-acetyl-phenylalanine derived from glucosamine to stimulate ECM synthesis, further in vitro studies in human primary chondrocytes were conducted. In order to simulate physiological conditions, the culture of human chondrocytes was carried out in three dimensions, cultivating the cells in the form of spheroids.

HAS-2 = experiment: expression of hyaluronic acid synthetase (HAS-2) and production of hyaluronic acid; type: cell-based
[6] = test system: fibroblasts stimulated with UVB; experiment: fibroblasts stimulated with UVB; type: cell-based
Description: This discovery promptly aroused in the inventors an interest in the ability of this class of products to intervene in the remodeling of the cutaneous ECM, in which the relative alteration of turnover leads to atrophy of the skin, with consequent aging of the skin and in some cases even to onset of skin cancer processes.

- kinase activity of IKKβ (IKKβ): not IKKβ
- expression of the enzyme synthetase of hyaluronic acid (HAS-2) (HAS-2): stimulate the expression
- production of hyaluronic acid (HA) (HAS-2): stimulate
SMILES: CC(=O)N[C@H](Cc1ccccc1)C(=O)NC1C(O)OC(CO)C(O)C1O (stereo partly drawn) [N-acetyl-phenylalanine derivative of glucosamine]
- cartilage structure [1]: structure very similar to the healthy one
- synthesis of new ECM [1]: stimulated the synthesis of new ECM
- cartilage structure [2]: structure very similar to the healthy one
- synthesis of new ECM [2]: stimulated the synthesis of new ECM
- phosphorylation of JNK (JNK): inhibiting the phosphorylation
- phosphorylation of p38 (p38): inhibiting the phosphorylation
- activation of c-jun (c-jun): influencing the activation of c-jun
- translocation in the nucleus of the IKKα kinase (IKKα [3]): inhibited the translocation in the nucleus
- kinase activity of IKKα (IKKα [4]): selectively inhibiting the kinase activity of IKKα
- synthesis of type II collagen [5]: stimulated the synthesis of type II collagen
- synthesis of type I collagen ([6]; UVB-stimulated fibroblasts, synthesis blocked by UVB treatment): restore the synthesis of type I collagen
- inflammatory pathways stimulated by UVB ([6]; compound added to culture medium of UVB-stimulated fibroblasts): able to counteract the inflammatory pathways
